{"source": "patent US20060183105A1", "about": "“Human brain-derived tissue-specific potassium channel” (priority 1997, published 2006)", "key": {"[1]": {"molecular_target": "T1, human brain-derived potassium channel subunit SEQ ID NO:3 (hKvQT2) (Homo sapiens, UniProt O43526, N780T)", "T1 construct": "EGFP (Enhanced Green Fluorescent Protein), from pEGFPC1; expressed in transfected cells; host or cells: COS-7 and HEK 293 cells, transient transfection", "T1 sequence (O43526 1-854 isoform O43526-2 N762T)": "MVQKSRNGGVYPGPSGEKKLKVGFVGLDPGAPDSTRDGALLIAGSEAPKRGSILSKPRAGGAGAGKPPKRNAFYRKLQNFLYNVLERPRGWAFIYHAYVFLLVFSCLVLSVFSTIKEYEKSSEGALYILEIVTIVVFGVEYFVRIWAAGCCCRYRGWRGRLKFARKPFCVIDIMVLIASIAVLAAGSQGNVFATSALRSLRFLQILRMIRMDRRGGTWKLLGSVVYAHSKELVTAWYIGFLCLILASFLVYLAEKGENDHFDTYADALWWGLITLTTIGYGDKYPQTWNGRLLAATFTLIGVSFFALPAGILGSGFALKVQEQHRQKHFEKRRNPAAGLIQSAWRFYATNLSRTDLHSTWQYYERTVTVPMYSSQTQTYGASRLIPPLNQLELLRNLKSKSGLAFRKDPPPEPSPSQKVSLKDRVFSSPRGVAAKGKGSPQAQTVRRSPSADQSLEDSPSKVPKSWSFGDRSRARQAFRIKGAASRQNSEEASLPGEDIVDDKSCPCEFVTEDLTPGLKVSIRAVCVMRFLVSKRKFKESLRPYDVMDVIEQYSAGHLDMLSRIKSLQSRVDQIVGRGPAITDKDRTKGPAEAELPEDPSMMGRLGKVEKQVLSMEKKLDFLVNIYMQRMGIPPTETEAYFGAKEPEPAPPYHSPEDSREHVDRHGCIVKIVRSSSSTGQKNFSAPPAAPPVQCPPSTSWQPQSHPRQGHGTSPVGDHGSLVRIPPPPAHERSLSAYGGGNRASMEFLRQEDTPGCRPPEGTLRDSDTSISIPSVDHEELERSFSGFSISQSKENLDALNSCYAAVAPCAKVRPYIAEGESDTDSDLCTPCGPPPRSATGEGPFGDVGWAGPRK", "assay": "cell-based", "description": "transfection: HEK293 cells (ATCC, Rockville, Md.) were transfected as follows: 70 ul LipoTAXI (Stratagene, La Jolla, Calif.) was added to a polystyrene tube and gently mixed. Two (2) ug pEFGPC1 (control vector used to trace the transfected cells) and 5 ug of one of the constructs (SEQ ID NO:2 in pcDNA3 or SEQ ID NO:4 in pcDNA3) was added to the lipid/media mixture and incubated for 20 minutes. Two (2)mls of OPTI-MEM I was then added and mixed gently. Cells to be transfected were washed once with OPTI-MEM I, and the 3 ml of lipid-DNA mixture were added to the washed cells and incubated at 37° C. 5% CO2 for 4-6 hours. Cells were then refed with 10% Heat Inactivated FBS (Biowhittaker, Walkersville, Md.) DMEM (Mediatech 10-017-CV). For co-expression experiments, 2 ug pEGFPC1(control vector), 5 ug of pcDNA3QT2L ((SEQ ID NO:2 in pcDNA3) and 20 ug pcDNA3QT2S (SEQ ID NO:4 in pcDNA3) were used in this protocol. Cells were diluted and replated onto 35 mm dishes 24-48 hours prior to patch clamping.\nCOS-7 cells (ATCC, Rockville Md.) were transfected as follows: 25 ul DMRIE-C Reagent (Gibco BRL/Life Technologies, Gaithersburg, Md.) were added to 2 ml of OPTI-MEM I (Gibco BRL/Life Technologies, Gaithersburg, Md.), mixed gently and incubated for 20 minuets. Two (2) ug pEGPPC1QT2L (EGFP fused to the N-terminus of SEQ ID NO:2) and 7.3 ug pcDNA3 or 9.3 ug pcDNA3QT2S (SEQ ID NO:4 in pcDNA3) (for a 5 molar excess over hKvQT2L (SEQ ID NO:2) construct) were added to lipid/media mixture, mixed gently and incubated for 20 minutes. Two (2) mls of OPTI-MEM I was then added to this and mixed gently. Cells to be transfected were washed once with OPTI-MEM I, and the 4 ml of lipid-DNA mixture were added to the washed cells and incubated at 37° C. 5% CO2 for 4-6 hours. Cells were then refed with 10% Heat Inactivated FBS (Biowhittaker, Walkersville, Md.) DMEM (Mediatech 10-017-CV). Cells were trypsinized, diluted and replated onto 35 mm dishes 24-48 hours prior to patch clamping.\nelectrophysiology: All recordings were obtained using the conventional whole cell configuration (Hammill, O. P., et al., Pfluger Arch., 391, 85-100, 1981). Cells were transfected with 5 ug pcDNA3 or 2 ug pEGFPQT2L (EGFP fused to the N-terminus of SEQ ID NO:2) 24-48 hours prior to experiments. Extracellular solution was (mM): 160 NaCl, 4.5 KCl, 1 MgC2, 2 CaCl2, 5 HEPES, 5 glucose (pH: 7.4 by NaOH, ˜325 mOsm). In K+ selectivity experiments, equimolar Na^+ was substituted by K^+. Pipette solution was (mM): 150 K-aspartate, 2 MgCl2, 1 CaCl2, 5 HEPES, 1.6 EGTA (pH: 7.2 by KOH, ˜305 mOsm). Voltage protocols were implemented and data acquired using pClamp 6.0 software (Axon Instr., CA). Solution changes and drug application with a local perfusion system."}, "[2]": {"tested_on": "mouse neocortical neurons", "conditions": "cited from earlier work; for induction of apoptosis on exposure: neurons, exposure to the K+ ionophore or K+-channel opener"}, "SN56 cells": {"tested_on": "SN56 cells", "conditions": "attenuation of the potassium current; cited from earlier work"}, "hKQT2 and hKQT3": {"molecular_target": "hKQT2 and hKQT3 (Homo sapiens, UniProt O43525+O43526)", "sequence (O43526 whole entry)": "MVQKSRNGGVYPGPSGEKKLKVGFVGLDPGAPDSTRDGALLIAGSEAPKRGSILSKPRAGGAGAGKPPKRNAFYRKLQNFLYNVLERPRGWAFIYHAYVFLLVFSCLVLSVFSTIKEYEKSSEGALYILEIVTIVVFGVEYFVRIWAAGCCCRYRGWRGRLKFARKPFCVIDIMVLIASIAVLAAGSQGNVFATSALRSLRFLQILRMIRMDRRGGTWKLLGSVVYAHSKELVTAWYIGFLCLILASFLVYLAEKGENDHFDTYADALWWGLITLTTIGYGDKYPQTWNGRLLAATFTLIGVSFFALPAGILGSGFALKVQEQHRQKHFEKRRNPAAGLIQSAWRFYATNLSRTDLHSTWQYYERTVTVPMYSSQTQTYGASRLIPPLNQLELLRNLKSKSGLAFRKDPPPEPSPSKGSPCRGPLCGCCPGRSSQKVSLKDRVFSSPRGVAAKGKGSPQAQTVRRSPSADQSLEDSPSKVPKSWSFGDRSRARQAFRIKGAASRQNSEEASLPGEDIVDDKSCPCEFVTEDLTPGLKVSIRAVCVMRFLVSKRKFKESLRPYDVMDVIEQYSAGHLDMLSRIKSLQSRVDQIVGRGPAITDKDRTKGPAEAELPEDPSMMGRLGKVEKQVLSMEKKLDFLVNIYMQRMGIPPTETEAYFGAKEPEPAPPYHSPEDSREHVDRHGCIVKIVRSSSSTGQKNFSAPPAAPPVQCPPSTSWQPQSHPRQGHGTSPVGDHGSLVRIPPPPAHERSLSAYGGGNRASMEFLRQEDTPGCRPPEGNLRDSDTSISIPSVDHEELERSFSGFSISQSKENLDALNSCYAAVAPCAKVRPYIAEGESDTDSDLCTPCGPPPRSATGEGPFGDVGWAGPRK", "sequence (O43525 whole entry)": "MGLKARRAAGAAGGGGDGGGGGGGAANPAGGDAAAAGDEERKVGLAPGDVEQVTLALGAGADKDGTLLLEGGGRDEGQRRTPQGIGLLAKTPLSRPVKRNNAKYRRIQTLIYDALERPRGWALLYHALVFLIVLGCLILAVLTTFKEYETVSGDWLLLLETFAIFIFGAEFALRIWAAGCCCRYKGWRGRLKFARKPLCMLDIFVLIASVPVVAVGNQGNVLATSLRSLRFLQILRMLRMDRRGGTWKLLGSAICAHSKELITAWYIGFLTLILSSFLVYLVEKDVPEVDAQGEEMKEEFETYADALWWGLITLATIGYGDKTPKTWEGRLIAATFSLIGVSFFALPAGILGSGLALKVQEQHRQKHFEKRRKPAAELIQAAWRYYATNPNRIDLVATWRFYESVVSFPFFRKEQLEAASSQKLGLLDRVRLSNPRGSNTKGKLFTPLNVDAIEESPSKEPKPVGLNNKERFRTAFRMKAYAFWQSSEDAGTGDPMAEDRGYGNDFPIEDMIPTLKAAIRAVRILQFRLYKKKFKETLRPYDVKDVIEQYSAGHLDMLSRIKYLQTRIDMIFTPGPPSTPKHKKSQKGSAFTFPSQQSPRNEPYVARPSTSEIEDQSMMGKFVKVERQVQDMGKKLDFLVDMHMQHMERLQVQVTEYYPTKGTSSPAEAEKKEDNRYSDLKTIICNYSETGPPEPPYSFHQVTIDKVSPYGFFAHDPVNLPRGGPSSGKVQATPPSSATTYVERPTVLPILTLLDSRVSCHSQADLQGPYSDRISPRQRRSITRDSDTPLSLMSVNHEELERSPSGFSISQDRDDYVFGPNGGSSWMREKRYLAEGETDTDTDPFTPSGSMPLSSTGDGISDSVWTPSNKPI", "conditions": "co-expression in oocytes, current mimics native M-currents; cited from earlier work"}}}
{"smiles": "[Ba+2].[Cl-].[Cl-]", "note": "[barium]", "values": [{"measurement": "blocking of hKvQT2 (SEQ ID NO:3) channel", "setting": "[1]; channel expressed in mammalian cells, properties match M-current", "value": "blocking by barium"}]}
{"smiles": "CC1(C)Oc2ccc(C#N)cc2C(N2CCCC2=O)C1O", "note": "(centres unmarked) [cromakalim]", "values": [{"measurement": "induction of neuronal apoptosis", "setting": "[2]; 24 to 48 hours of exposure", "value": "induced typical neuronal apoptosis"}, {"measurement": "induction of apoptosis on exposure", "setting": "[2]", "value": "induced apoptosis"}]}
{"smiles": "CC[N+](CC)(CC)CC.[Cl-]", "note": "[TEA, tetraethylammonium chloride]", "values": [{"measurement": "IC50", "setting": "[1]", "value": 130, "unit": "µM"}, {"measurement": "slope factor of Hill fit, inhibition of SEQ ID NO:3 subunit", "setting": "[1]; Hill fit to mean data points, FIG. 12D", "value": 0.59}, {"measurement": "block of voltage-gated outward currents", "setting": "[1]; externally applied, mammalian cells transfected with SEQ ID NO:2, FIG. 12D", "value": "blocked potently"}, {"measurement": "effect on apoptosis of mouse neocortical neurons", "setting": "[2]; apoptosis induced by serum deprivation or staurosporine, attenuating outward K+ current", "value": "reduced apoptosis"}, {"measurement": "effect on Aβ-mediated toxicity", "setting": "SN56 cells", "value": "block Aβ-mediated toxicity"}, {"measurement": "block of hKQT2/hKQT3 current", "setting": "hKQT2 and hKQT3", "value": "block by TEA"}]}
{"smiles": "CC(C)[C@@H]1NC(=O)[C@H](C)OC(=O)[C@@H](C(C)C)NC(=O)[C@@H](C(C)C)OC(=O)[C@H](C(C)C)NC(=O)[C@H](C)OC(=O)[C@@H](C(C)C)NC(=O)[C@@H](C(C)C)OC(=O)[C@H](C(C)C)NC(=O)[C@H](C)OC(=O)[C@@H](C(C)C)NC(=O)[C@@H](C(C)C)OC1=O", "note": "[valinomycin]", "values": [{"measurement": "induction of neuronal apoptosis in cortical cultures", "setting": "[2]; 20 nM, 24 to 48 hours", "value": "induced typical neuronal apoptosis"}, {"measurement": "induction of apoptosis on exposure", "setting": "[2]", "value": "induced apoptosis"}]}
